In patent publication US5288720A, “Angiotensin II receptor blocking 2,3,6 substituted quinazolinones” (American Cyanamid Company, priority 1993, dated 1994):
pIC50: −log10 of the molar value.

The molecules below were run against T1, Angiotensin II Receptor (Bos taurus, UniProt P25104) (assay: Receptor Binding Assay: Binding of [^125 I](Sar^1,Ile^8)AngII to beef adrenal cortex membranes). Details: 60 min, room temperature.
T1 construct: The brownish tissue forming the adrenal cortex is scraped off and finely minced with scissors before homogenization; from tissue; host or cells: beef adrenal cortex, microsomal membranes (100,000×g pellet); fresh glands from a local slaughter house (Maxwell-Cohen)
T1 sequence (P25104 1-359): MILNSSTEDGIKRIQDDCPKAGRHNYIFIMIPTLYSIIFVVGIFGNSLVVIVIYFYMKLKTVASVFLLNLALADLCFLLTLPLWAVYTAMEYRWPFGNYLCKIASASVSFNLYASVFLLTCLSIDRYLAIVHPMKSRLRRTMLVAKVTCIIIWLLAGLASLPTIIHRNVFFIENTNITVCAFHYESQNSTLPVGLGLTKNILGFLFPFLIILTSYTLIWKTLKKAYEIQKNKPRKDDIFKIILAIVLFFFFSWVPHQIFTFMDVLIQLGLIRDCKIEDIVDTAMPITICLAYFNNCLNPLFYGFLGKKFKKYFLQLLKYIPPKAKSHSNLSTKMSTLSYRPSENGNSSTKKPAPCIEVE
In short: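 Competition binding of [125I](Sar1,Ile8)AngII (2200 Ci/mmole) to bovine adrenal cortex membranes (100,000×g pellet) in 50.0 mM Tris.HCl, pH 7.2, 0.1 mM PMSF. Compounds were added in DMSO and incubated 60 min at room temperature, in triplicate. Bound ligand was filtered onto PEI-presoaked filters and gamma-counted, with nonlinear analysis.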

Row | SMILES | pIC50
1 | CCCCc1nc2ccc(C(OC)C3CCCO3)cc2c(=O)n1Cc1ccc(-c2ccccc2-c2nn[nH]n2)cc1 (single isomer, unassigned) [Example 24] | 7.42
2 | CCCCc1nc2ccc(C(O)C3CCN(C)C3=O)cc2c(=O)n1Cc1ccc(-c2ccccc2-c2nn[nH]n2)cc1 (single isomer, unassigned; isomer 2) [Example 33, 2-Butyl-6-[hydroxy(1-methyl-2-oxo-3-pyrrolidinyl)methyl-3-[[2'-(1H-tetrazol-5-yl)[1,1'-biphenyl]-4-yl]methyl]-4(3H)-quinazolinone isomer 2] | 7.54
3 | CCCCc1nc2ccc(C(O)C3CCCN(C)C3=O)cc2c(=O)n1Cc1ccc(-c2ccccc2-c2nn[nH]n2)cc1 (single isomer, unassigned; isomer 2) [Example 38, 2-Butyl-6-hydroxy(1-methyl-2-oxo-3-piperidinyl)methyl-3-[[2'-(1H-tetrazol-5-yl)[1,1'-biphenyl]-4-yl]methyl-4(3H)-quinazolinone isomer 2] | 7.17
4 | CCCCc1nc2ccc(C(OC)C3CCCO3)cc2c(=O)n1Cc1ccc(-c2ccccc2-c2nn[nH]n2)cc1 (single isomer, unassigned; isomer 1) [Example 23, 2-Butyl-6-[methoxy(tetrahydro-2-furanyl)methyl-3-[[2'-(1H-tetrazol-5-yl)[1,1'-biphenyl]-4-yl]-methyl]-4(3e,uns/H/ )-quinazolinone isomer 1] | 7.17
5 | CCCCc1nc2ccc(C(O)C3CCN(C)C3=O)cc2c(=O)n1Cc1ccc(-c2ccccc2-c2nn[nH]n2)cc1 (single isomer, unassigned; isomer 1) [Example 32, 2-Butyl-6-[hydroxy(1-methyl-2-oxo-3-pyrrolidinyl)methyl]-3-[[2'-(1e,uns/H/ -tetrazol-5-yl)[1,1'-biphenyl]-4-yl]methyl]-4(3H)-quinazolinone isomer 1] | 7.39

More lines, now with the values ahead:

Row | pIC50 | SMILES
6 | 7.04 | CCCCc1nc2ccc(C(OC)C3CCCN(C)C3=O)cc2c(=O)n1Cc1ccc(-c2ccccc2-c2nn[nH]n2)cc1 (single isomer, unassigned; isomer 1) [Example 42, 2-Butyl-6-methoxy(1-methyl-2-oxo-3-piperidinyl)methyl]-3-[[2' -1H-tetrazol-5-yl)[1,1'-biphenyl]-4-yl]methyl-4(3H)-quinazolinone isomer 1]
7 | 7.39 | CCCCc1nc2ccc(C(O)C3CCCN(C)C3=O)cc2c(=O)n1Cc1ccc(-c2ccccc2-c2nn[nH]n2)cc1 (single isomer, unassigned; isomer 1) [Example 37, 2-Butyl-6-hydroxy(1-methyl-2-oxo-3-piperidinyl)methyl]-3-[[2'-(1H-tetrazol-5-yl)[1,1'-biphenyl]-4-yl]methyl]-4(3H)-quinazolinone isomer 1]
8 | 7.15 | CCCCc1nc2ccc(C(OC)C3CCCN(C)C3=O)cc2c(=O)n1Cc1ccc(-c2ccccc2-c2nn[nH]n2)cc1 (single isomer, unassigned; isomer 2) [Example 43, 2-Butyl-6-[methoxy(1-methyl-2-oxo-3-piperidinyl)methyl]-3-[[2'-(1H-tetrazol-5-yl)[1,1'-biphenyl]-4-yl]methyl]-4(3H)-quinazoline isomer 2]
